These results are taken from US20220017484A1, “INHIBITOR OF BRUTON TYROSINE KINASE” (BEIJING RECIPROCAPHARMACEUTICALS CO., LTD., priority 2018, published 2022).

Assay [1] addresses Btk (Homo sapiens, UniProt Q06187). Put plainly: Analysis of in vitro inhibitory activity of Btk (cell-free TR-FRET kinase assay). The note with it: for IC50: cell-free TR-FRET, ATP at Km, 1 h, read-out: Efficacy (Btk IC50); for inhibitory effects against Btk (in words): summary of Table 1 efficacy data. It counts as biochemical. The procedure:
In a cell-free kinase assay, the method described below or a similar method was used to determine the half inhibitory concentration (IC50) of the compound of the present invention on Btk.
Btk kinase activity was determined using a time-resolved fluorescence resonance energy transfer (TR-FRET) methodology. Measurements were performed in a reaction volume of 50 μL using 96-well assay plates. […] The reaction was quenched by the addition of 1.2 equivalents of EDTA (relative to divalent cation) in […] of 1× Lance buffer (Perkin-Elmer). Streptavidin-APC (Perkin-Elmer) and Eu-labeled p-Tyr100 antibody (Perkin-Elmer) in 1× Lance buffer were added in a volume of 25 μL to give final concentrations of 100 nM and 2.5 nM, respectively. The mixture was allowed to incubate for 1 h. The TR-FRET signal was measured on a multimode plate reader at an excitation wavelength (λEx) of 330 nm and detection wavelengths (λEm) of 615 and 665 nm. The activity was determined by the ratio of fluorescence at 665 nm to that at 615 nm. For each compound, the enzyme activity was measured in the presence of different concentrations of the compound. Negative control reactions were performed in the absence of inhibitor in replicates of six, and two no-enzyme controls were used to determine baseline fluorescence levels. IC50 was obtained by fitting using the program Batch Ki (Kuzmic, et al. (2000), Anal. Biochem. 286:45-50).
The Example compounds 1-50 of the present invention were synthesized according to the above Synthetic Schemes I to VII. In the analysis of in vitro inhibitory activity of Btk, the IC50 values of the Example compounds 1-50 of the present invention were determined. The IC50 values are given according to the interval of the IC50 value, where “+++” means IC50<100 nM; “++” means 100 nM≤IC50<1000 nM; and “+” means 1000 nM≤IC50<10000 nM.
Background: TR-FRET usually uses a lanthanide donor and a delayed reading to cut background.

In assay [2] the test system is OCI-LY7 cells. Put plainly: Cell viability assay (CellTiter-Glo, 72 h). It counts as cell-based. Particulars: Homo sapiens, read-out: Results from inhibition of OCI-LY7 cells (IC50). The procedure: An in vitro cell viability assay was conducted using the compounds of Examples 1-50 following the steps below:
1. After OCI-LY7 cells were recovered, they were cultured at 37° C., 5% CO2, and 95% humidity.
2. For the compounds of Examples 1-50, 8 compound solutions at different concentrations were prepared, respectively. 50 μL of the compound solution at each concentration was added to a 96-well black plate.
3. The cell concentration was adjusted to about 30,000 cells/mL. 100 μL of cell suspension was added to the 96-well plate, and mixed well. The final cell density was about 3,000 cells/well.
4. The 96-well plate was placed at 37° C., 5% CO2, and 95% humidity for 72 h.
5. The cell survival rate was measured by the method of CellTiter-Glo® Luminescent Cell Viability Assay (Promega, Cat #G7572). The fluorescence data were read on a microplate reader (EnVision™, a multi-function microplate detector, PerkinElmer).
6. The obtained fluorescence data were analyzed using GraphPad Prism software. The cell survival rate was calculated for each example compound at each concentration, and the IC50 interval of each example compound was obtained.
On the technique in general: In ATP-based viability assays light output follows the ATP content of the culture.

Chain of Btk (Q06187 whole entry): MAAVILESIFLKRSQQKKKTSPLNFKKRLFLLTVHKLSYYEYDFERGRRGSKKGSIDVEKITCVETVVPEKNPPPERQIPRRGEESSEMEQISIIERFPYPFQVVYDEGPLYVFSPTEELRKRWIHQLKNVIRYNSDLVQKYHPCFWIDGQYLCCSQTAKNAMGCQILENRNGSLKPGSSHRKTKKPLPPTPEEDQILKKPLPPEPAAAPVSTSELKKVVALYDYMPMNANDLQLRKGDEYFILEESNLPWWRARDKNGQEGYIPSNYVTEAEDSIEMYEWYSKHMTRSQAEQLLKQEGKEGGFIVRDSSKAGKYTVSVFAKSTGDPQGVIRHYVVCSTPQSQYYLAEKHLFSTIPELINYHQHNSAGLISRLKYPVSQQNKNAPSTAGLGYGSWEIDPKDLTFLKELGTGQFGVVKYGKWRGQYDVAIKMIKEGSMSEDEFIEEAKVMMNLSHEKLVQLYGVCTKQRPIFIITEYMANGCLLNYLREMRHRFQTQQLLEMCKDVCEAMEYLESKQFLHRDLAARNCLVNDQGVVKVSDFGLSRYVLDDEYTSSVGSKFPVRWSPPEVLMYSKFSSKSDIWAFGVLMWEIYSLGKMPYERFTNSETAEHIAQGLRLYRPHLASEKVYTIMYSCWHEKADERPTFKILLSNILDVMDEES

Take `Cc1cc[nH]c(=O)c1-c1ccc2nc(Nc3cccc(N)c3)ncc2c1` [Example 1]: the IC50 in assay [1] was less than 100 nM; in assay [2], less than 500 nM.
As to `C=CC(=O)Nc1cccc(Nc2ncc3cc(-c4c(C)cc[nH]c4=O)ccc3n2)c1` [Example 2], in assay [1], the IC50 was less than 100 nM and the “inhibitory effects against Btk (in words)” value (“inhibitory effects” below) is reported as “particularly excellent inhibitory effects”. Further, the IC50 in assay [2] was less than 500 nM.
Consider `CCC(=O)Nc1cccc(Nc2ncc3cc(-c4c(C)cc[nH]c4=O)ccc3n2)c1` [Example 3], for which the values for the IC50 in assay [1] and in assay [2] were less than 100 nM and less than 500 nM, respectively.
The matching figures for `C/C=C/C(=O)Nc1cccc(Nc2ncc3cc(-c4c(C)cc[nH]c4=O)ccc3n2)c1` [Example 4]: less than 100 nM and less than 500 nM.
Turning to `Cc1cc[nH]c(=O)c1-c1ccc2nc(Nc3cccc(NC(=O)/C=C/CN(C)C)c3)ncc2c1` [Example 5], in assay [1], the IC50 was less than 100 nM and the “inhibitory effects” value is “particularly excellent inhibitory effects”. Moreover, in assay [2], the IC50 was less than 500 nM.
`C=CC(=O)Nc1cc(Nc2ncc3cc(-c4c(C)cc[nH]c4=O)ccc3n2)ccc1OCCOC` [Example 6]: the figures for the IC50 in assay [1] and in assay [2] were less than 100 nM and less than 500 nM, respectively.
On to `Cc1cc[nH]c(=O)c1-c1ccc2nc(Nc3cccc(NC(=O)/C=C/CN4CCCCC4)c3)ncc2c1` [Example 7], for which the IC50 is less than 100 nM in assay [1] and less than 500 nM in assay [2].
Turning to `Cc1cc[nH]c(=O)c1-c1ccc2nc(Nc3cccc(NC(=O)/C=C/CN4CCOCC4)c3)ncc2c1` [Example 8], the IC50 in assay [1] was less than 100 nM; in assay [2], less than 500 nM.
With `Cc1cc[nH]c(=O)c1-c1ccc2nc(Nc3cccc(NC(=O)CN)c3)ncc2c1` [Example 9], the results for the IC50 in assay [1] and in assay [2] were less than 100 nM and 500 to 2500 nM, respectively.
For the compound `C=CC(=O)NCC(=O)Nc1cccc(Nc2ncc3cc(-c4c(C)cc[nH]c4=O)ccc3n2)c1` [Example 10], the values for the IC50 in assay [1] and in assay [2] were less than 100 nM and less than 500 nM, respectively.
In the same order, the values of `Cc1cc[nH]c(=O)c1-c1ccc2nc(Nc3cccc(NC(=O)CCN(C)C)c3)ncc2c1` [Example 11] are less than 100 nM and less than 500 nM.
In the same order, the values of `Cc1ccn(-c2cccc(C(F)(F)F)c2)c(=O)c1-c1ccc2nc(Nc3cccc(N)c3)ncc2c1` [Example 12] are 1000 to 10000 nM and less than 500 nM.
In the same order, the values of `C=CC(=O)Nc1cccc(Nc2ncc3cc(-c4c(C)ccn(-c5cccc(C(F)(F)F)c5)c4=O)ccc3n2)c1` [Example 13] are 100 to 1000 nM and less than 500 nM.
With `Cc1ccn(-c2ccc(N3CCOCC3)cc2)c(=O)c1-c1ccc2nc(Nc3cccc(N)c3)ncc2c1` [Example 14], the figures for the IC50 in assay [1] and in assay [2] were 100 to 1000 nM and less than 500 nM, respectively.
In the same order, the values of `C=CC(=O)Nc1cccc(Nc2ncc3cc(-c4c(C)ccn(-c5ccc(N6CCOCC6)cc5)c4=O)ccc3n2)c1` [Example 15] are 100 to 1000 nM and less than 500 nM.
The matching figures for `Cc1ccn(C)c(=O)c1-c1ccc2nc(Nc3cccc(N)c3)ncc2c1` [Example 16]: 1000 to 10000 nM and 500 to 2500 nM.
Consider `C=CC(=O)Nc1cccc(Nc2ncc3cc(-c4c(C)ccn(C)c4=O)ccc3n2)c1` [Example 17], for which the IC50 was 100 to 1000 nM in assay [1] and 500 to 2500 nM in assay [2].
Regarding `Cc1cc[nH]c(=O)c1-c1ccc2nc(Nc3cccc(NC(=O)[C@@H](N)C(C)C)c3)ncc2c1` [Example 18], the IC50 in assay [1] was less than 100 nM; in assay [2], less than 500 nM.
For the compound `C=CC(=O)N[C@H](C(=O)Nc1cccc(Nc2ncc3cc(-c4c(C)cc[nH]c4=O)ccc3n2)c1)C(C)C` [Example 19], the values for the IC50 in assay [1] and in assay [2] were less than 100 nM and less than 500 nM, respectively. Also, the “inhibitory effects” value in assay [1] is “particularly excellent inhibitory effects”.
For the compound `Cc1cc[nH]c(=O)c1-c1ccc2nc(Nc3cccc(NC(=O)[C@@H]4CCCN4)c3)ncc2c1` [Example 20], the IC50 lay in the range of 100 to 1000 nM in assay [1] and 500 to 2500 nM in assay [2].
In the same order, the values of `C=CC(=O)N1CCC[C@H]1C(=O)Nc1cccc(Nc2ncc3cc(-c4c(C)cc[nH]c4=O)ccc3n2)c1` [Example 21] are less than 100 nM and less than 500 nM.
The matching figures for `CNc1cccc(Nc2ncc3cc(-c4c(C)cc[nH]c4=O)ccc3n2)c1` [Example 22]: less than 100 nM and less than 500 nM.
In the case of `Cc1cc[nH]c(=O)c1-c1ccc2nc(Nc3cccc(N(C)C(=O)/C=C/CN(C)C)c3)ncc2c1` [Example 24], in assay [1], the IC50 was less than 100 nM and the “inhibitory effects” value is “particularly excellent inhibitory effects”. In addition, the IC50 in assay [2] was less than 500 nM.
Regarding `CCNc1cccc(Nc2ncc3cc(-c4c(C)cc[nH]c4=O)ccc3n2)c1` [Example 25], the 50% inhibitory concentration (IC50) in assay [1] is less than 100 nM; in assay [2], less than 500 nM.
As to `C=CC(=O)N(c1cccc(Nc2ncc3cc(-c4c(C)cc[nH]c4=O)ccc3n2)c1)C(C)C` [Example 27], the IC50 in assay [1] was less than 100 nM; in assay [2], less than 500 nM.
In the same order, the values of `C=CC(=O)N(CC)c1cccc(Nc2ncc3cc(-c4c(C)ccn(C(=O)OCC)c4=O)ccc3n2)c1` [Example 28] are less than 100 nM and less than 500 nM.
The matching figures for `C=CC(=O)N(CC)c1cccc(Nc2ncc3cc(-c4c(C)ccn(C(C)=O)c4=O)ccc3n2)c1` [Example 29]: 100 to 1000 nM and 500 to 2500 nM.
With `C=CC(=O)N(CC)c1cccc(Nc2ncc3cc(-c4c(C)ccn(C(=O)N(C)C)c4=O)ccc3n2)c1` [Example 30], the figures for the IC50 in assay [1] and in assay [2] were 100 to 1000 nM and no less than 2500 nM, respectively.
Turning to `C=CC(=O)N(CC)c1cccc(Nc2ncc3cc(-c4c(C)ccn(C(=O)OCc5ccccc5)c4=O)ccc3n2)c1` [Example 31], the IC50 was less than 100 nM in assay [1] and less than 500 nM in assay [2].
The matching figures for `C=CC(=O)N(CC)c1cccc(Nc2ncc3cc(-c4c(C)ccn(-c5ncco5)c4=O)ccc3n2)c1` [Example 32]: 100 to 1000 nM and 500 to 2500 nM.
For the compound `CC#CC(=O)N(CC)c1cccc(Nc2ncc3cc(-c4c(C)cc[nH]c4=O)ccc3n2)c1` [Example 33], in assay [1], the IC50 is less than 100 nM and the “inhibitory effects” value is given as “particularly excellent inhibitory effects”. The IC50 in assay [2] is less than 500 nM.
The matching figures for `CCN(C(=O)/C=C/CN(C)C)c1cccc(Nc2ncc3cc(-c4c(C)cc[nH]c4=O)ccc3n2)c1` [Example 34]: less than 100 nM, “particularly excellent inhibitory effects” and 500 to 2500 nM.
With `C=C(F)C(=O)N(CC)c1cccc(Nc2ncc3cc(-c4c(C)cc[nH]c4=O)ccc3n2)c1` [Example 35], the figures for the half-maximal inhibitory concentration (IC50) in assay [1] and in assay [2] were less than 100 nM and less than 500 nM, respectively.
As to `C=CC(=O)Nc1cc(Nc2ncc3cc(-c4c(C)cc[nH]c4=O)ccc3n2)ccc1OC` [Example 36], the IC50 in assay [1] was less than 100 nM; in assay [2] it was less than 500 nM.
With `C=CC(=O)N(CC)c1cc(Nc2ncc3cc(-c4c(C)cc[nH]c4=O)ccc3n2)ccc1OC` [Example 37], the IC50 in assay [1] is less than 100 nM; in assay [2] it was less than 500 nM. For the same compound, the “inhibitory effects” value in assay [1] is recorded as “particularly excellent inhibitory effects”.
The matching figures for `C=CC(=O)N(CCOC)c1cccc(Nc2ncc3cc(-c4c(C)cc[nH]c4=O)ccc3n2)c1` [Example 38]: less than 100 nM, less than 500 nM and “particularly excellent inhibitory effects”.
On to `C=CC(=O)N(CC)c1cc(Nc2ncc3cc(-c4c(C)cc[nH]c4=O)ccc3n2)ccc1F` [Example 39], for which the values for the IC50 in assay [1] and in assay [2] were less than 100 nM and 500 to 2500 nM, respectively.
As for `C=CC(=O)N(CC)c1cc(Nc2ncc3cc(-c4c(C)cc[nH]c4=O)ccc3n2)ccc1C` [Example 40], the half-inhibitory concentration (IC50) was less than 100 nM in assay [1] and 500 to 2500 nM in assay [2].
In the same order, the values of `Cc1cc[nH]c(=O)c1-c1ccc2nc(Nc3ccc4c(c3)NCCO4)ncc2c1` [Example 41] are less than 100 nM and less than 500 nM.

As a reminder, the IC50 is the concentration needed to halve the response being measured.
